Measured values from PubChem BioAssay (NCI).
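GI50 marks 50% less growth. TGI is the concentration that stops growth completely.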

Assays:
Assay in all cases: NCI-60 cell line screen, 384-well format
[1] = system: SK-MEL-28 melanoma
[2] = system: IGROV1 ovarian
[3] = system: NCI/ADR-RES ovarian
[4] = system: HL-60(TB) leukemia
[5] = system: MDA-MB-468 breast
[6] = system: RXF 393 renal
[7] = system: A549 NSCLC
[8] = system: MDA-MB-435 melanoma
[9] = system: SW-620 colon
[10] = system: SF-268 CNS
[11] = system: UACC-62 melanoma
[12] = system: A498 renal
[13] = system: SK-MEL-5 melanoma
[14] = system: EKVX NSCLC
[15] = system: MOLT-4 leukemia
[16] = system: HCC-2998 colon
[17] = system: CAKI-1 renal
[18] = system: BT-549 breast
[19] = system: K-562 leukemia
[20] = system: SF-295 CNS
[21] = system: ACHN renal
[22] = system: UO-31 renal
[23] = system: NCI-H226 lung
[24] = system: OVCAR-5 ovarian
[25] = system: RPMI-8226 leukemia
[26] = system: HS 578T breast
[27] = system: NCI-H460 NSCLC
[28] = system: NCI-H322M lung

`C[C@@H]1CCc2ncc(F)cc2[C@H]2CCCN2c2ccn3ncc(c3n2)C(=O)N1` gave a GI50 [1] of 70.2 µM, a TGI [1] greater than 100 µM and a GI50 [2] of 30.9 µM. The TGI [2] was greater than 100 µM, the GI50 [3] was greater than 100 µM and the TGI [3] was greater than 100 µM. The GI50 [4] was 63.1 µM, the TGI [4] was greater than 100 µM and the GI50 [5] was 17 µM. For the same compound, the TGI [5] was 92 µM, the GI50 [6] was 3.44 µM and the TGI [6] was greater than 100 µM. For the same compound, the GI50 [7] was 61.9 µM, the TGI [7] was greater than 100 µM and the GI50 [8] was 57.2 µM. It also gave a TGI [8] greater than 100 µM, a GI50 [9] greater than 100 µM and a TGI [9] greater than 100 µM. For the same compound, the GI50 [10] was 94.1 µM, the TGI [10] was greater than 100 µM and the GI50 [11] was 97.9 µM. The TGI [11] was greater than 100 µM, the GI50 [12] was 12.3 µM and the TGI [12] was greater than 100 µM. It also gave a GI50 [13] greater than 100 µM, a TGI [13] greater than 100 µM and a GI50 [14] greater than 100 µM. For the same compound, the TGI [14] was greater than 100 µM, the GI50 [15] was 5.07 µM and the TGI [15] was 20.4 µM. The GI50 [16] was greater than 100 µM, the TGI [16] was greater than 100 µM and the GI50 [17] was 56.1 µM. It also gave a TGI [17] greater than 100 µM, a GI50 [18] of 76.3 µM and a TGI [18] greater than 100 µM. For the same compound, the GI50 [19] was 7.4 µM, the TGI [19] was 49 µM and the GI50 [20] was 30.1 µM. For the same compound, the TGI [20] was greater than 100 µM, the GI50 [21] was 28 µM and the TGI [21] was greater than 100 µM. For the same compound, the GI50 [22] was greater than 100 µM, the TGI [22] was greater than 100 µM and the GI50 [23] was 5.37 µM. It also gave a TGI [23] greater than 100 µM, a GI50 [24] of 32.6 µM and a TGI [24] greater than 100 µM. It also gave a GI50 [25] of 2.36 µM, a TGI [25] greater than 100 µM and a GI50 [26] of 7.78 µM. It also gave a TGI [26] greater than 100 µM, a GI50 [27] greater than 100 µM and a TGI [27] greater than 100 µM. It also gave a GI50 [28] greater than 100 µM.
